Assay results: article PMC6099740, “Design, Synthesis and Biological Evaluation of 6,7-Disubstituted-4-phenoxyquinoline Derivatives Bearing Pyridazinone Moiety as c-Met Inhibitors” (Molecules : A Journal of Synthetic Chemistry and Natural …, 2018)

Assays:
A549 cells = experiment: MTT cytotoxicity assay, A549; assay type: cell-based; settings: Homo sapiens, 72 h
Procedure: (§1) The results expressed as IC50 values were summarized in Table 1, and the values were the average of at least two independent experiments.
(§2) The cancer cell lines were cultured in minimum essential medium (MEM) supplement with 10% fetal bovine serum (FBS). […] The test compounds at indicated final concentrations were added to the culture medium and the cell cultures were continued for 72 h. […] All of the compounds were tested two times in each of the cell lines. The results expressed as inhibition rates or IC50 (half-maximal inhibitory concentration) were the averages of two determinations and calculated by using the Bacus Laboratories Incorporated Slide Scanner (Bliss) software (the Bacus Laboratories Inc. Slide Scanner (BLISS) system, Lombard, IL, USA)..

HepG2 cells = experiment: MTT cytotoxicity assay, HepG2; assay type: cell-based; settings: Homo sapiens, 72 h
Procedure: as §1
The cancer cell lines were cultured in minimum essential medium (MEM) supplement with 10% fetal bovine serum (FBS). Approximately 4 × 10^3 cells, suspended in MEM medium, were plated onto each well of a 96-well plate and incubated in 5% CO2 at 37 °C for 24 h. The test compounds at indicated final concentrations were added to the culture medium and the cell cultures were continued for 72 h. Fresh MTT was added to each well at a terminal concentration of 5 μg/mL and incubated with cells at 37 °C for 4 h. The formazan crystals were dissolved in 100 μL DMSO each well, and the absorbency at 492 nm (for absorbance of MTT formazan) and 630 nm (for the reference wavelength) was measured with the ELISA reader. All of the compounds were tested two times in each of the cell lines. The results expressed as inhibition rates or IC50 (half-maximal inhibitory concentration) were the averages of two determinations and calculated by using the Bacus Laboratories Incorporated Slide Scanner (Bliss) software (the Bacus Laboratories Inc. Slide Scanner (BLISS) system, Lombard, IL, USA)..

MCF-7 cells = experiment: MTT cytotoxicity assay, MCF-7; assay type: cell-based; settings: Homo sapiens, MCF7, 72 h
Procedure: as §1, §2

c-Met kinase = c-Met kinase (Homo sapiens, UniProt P08581); experiment: c-Met kinase inhibition assay (HTRF; mobility shift)
Chain of c-Met kinase (P08581 25-1390): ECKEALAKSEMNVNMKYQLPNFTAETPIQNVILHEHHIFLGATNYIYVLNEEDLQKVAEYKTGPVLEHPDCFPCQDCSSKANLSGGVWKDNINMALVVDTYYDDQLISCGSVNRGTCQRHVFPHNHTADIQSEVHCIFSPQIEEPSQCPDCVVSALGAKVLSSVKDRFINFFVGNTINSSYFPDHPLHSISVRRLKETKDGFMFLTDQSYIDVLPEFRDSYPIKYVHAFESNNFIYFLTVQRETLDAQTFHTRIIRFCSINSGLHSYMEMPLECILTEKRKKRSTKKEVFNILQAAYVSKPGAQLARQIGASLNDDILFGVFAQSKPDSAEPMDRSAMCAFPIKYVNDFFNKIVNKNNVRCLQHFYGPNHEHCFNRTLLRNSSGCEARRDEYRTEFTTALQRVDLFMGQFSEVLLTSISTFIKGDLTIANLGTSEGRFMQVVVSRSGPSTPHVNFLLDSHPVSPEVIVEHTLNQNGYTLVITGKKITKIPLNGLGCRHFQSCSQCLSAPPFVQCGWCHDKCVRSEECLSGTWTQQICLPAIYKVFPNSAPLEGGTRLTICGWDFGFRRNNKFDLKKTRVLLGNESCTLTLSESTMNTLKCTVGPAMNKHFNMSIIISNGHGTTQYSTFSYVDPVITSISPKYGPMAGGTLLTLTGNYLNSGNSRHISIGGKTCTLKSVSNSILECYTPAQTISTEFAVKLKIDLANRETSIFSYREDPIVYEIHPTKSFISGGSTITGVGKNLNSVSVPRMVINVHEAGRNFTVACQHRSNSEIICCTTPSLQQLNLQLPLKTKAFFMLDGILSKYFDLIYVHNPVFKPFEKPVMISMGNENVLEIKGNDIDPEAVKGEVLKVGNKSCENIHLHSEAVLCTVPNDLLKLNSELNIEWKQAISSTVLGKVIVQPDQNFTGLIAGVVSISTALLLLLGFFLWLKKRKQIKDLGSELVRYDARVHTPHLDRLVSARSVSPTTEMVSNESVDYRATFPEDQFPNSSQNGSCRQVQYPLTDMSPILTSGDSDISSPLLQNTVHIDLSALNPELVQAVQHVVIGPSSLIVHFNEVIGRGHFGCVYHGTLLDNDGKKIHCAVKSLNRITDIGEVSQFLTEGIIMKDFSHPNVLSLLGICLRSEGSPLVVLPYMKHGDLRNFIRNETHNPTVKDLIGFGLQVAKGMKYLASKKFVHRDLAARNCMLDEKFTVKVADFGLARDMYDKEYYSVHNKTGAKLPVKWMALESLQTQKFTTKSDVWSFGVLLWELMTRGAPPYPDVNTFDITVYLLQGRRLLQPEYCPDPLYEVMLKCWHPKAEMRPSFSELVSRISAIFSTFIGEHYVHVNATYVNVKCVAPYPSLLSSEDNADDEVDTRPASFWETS
Procedure: All kinase assays were performed in 96-well plates in a 50 µL reaction volume. The kinase buffer contains 50 mM HEPES, pH 7.5, 10 mM MgCl2, 0.0015% Brij-35 and 2 mM DTT. The stop buffer contains 100 mM HEPES, pH 7.5, 0.015% Brij-35, 0.2% Coating Reagent 3 and 50 mM EDTA. Dilute the compounds to 500 µM by 100% DMSO, then transfer 10 µL of compound to a new 96-well plate as the intermediate plate, add 90 µL kinase buffer to each well. Transfer 5 µL of each well of the intermediate plate to 384-well plates. The following amounts of enzyme and substrate were used per well: kinase base buffer, FAM-labeled peptide, ATP and enzyme solution. Wells containing the substrate, enzyme, DMSO without compound were used as DMSO control. Wells containing just the substrate without enzyme were used as low control. Incubate at room temperature for 10 min. Add 10 µL peptide solution to each well. […] At last collect data on Caliper program and convert conversion values to inhibition values. Percent inhibition = (max − conversion)/(max − min) × 100. ‘max’ stands for DMSO control; ‘min’ stands for low control [20].

SMILES | IC50 (A549 cells) | IC50 (HepG2 cells) | IC50 (MCF-7 cells) | melting point | IC50 (c-Met kinase)
COc1cc2c(Oc3ccc(NC(=O)c4nn(-c5ccccc5)ccc4=O)cc3F)ccnc2cc1OCCCN1CCOCC1 [Compound 29, N-(3-Fluoro-4-((6-methoxy-7-(3-morpholinopropoxy)quinolin-4-yl)oxy)phenyl)-4-oxo-1-phenyl-1,4-dihydropyridazine-3-carboxamide] | 200 ± 20 nM | 2270 ± 360 nM | 30 ± 10 nM | 118.7 to 119.8 °C | 16 nM
COc1cc2c(Oc3ccc(NC(=O)C4(C(=O)Nc5ccc(F)cc5)CC4)cc3F)ccnc2cc1OCCCN1CCOCC1 [Foretinib, reference compound] |  | 840 ± 70 nM |  |  | 
COc1cc2c(Oc3ccc(NC(=O)c4nn(-c5ccccc5)ccc4=O)cc3F)ccnc2cc1OCCCN1CCC(C)CC1 [Compound 45, N-(3-Fluoro-4-((6-methoxy-7-(3-(4-methylpiperidin-1-yl)propoxy)quinolin-4-yl)oxy)phenyl)-4-oxo-1-phenyl-1,4-dihydropyridazine-3-carboxamide] | 2950 ± 470 nM | 4660 ± 670 nM | 2010 ± 300 nM | 148.5 to 150.1 °C | 187 nM
COc1cc2c(Oc3ccc(NC(=O)c4nn(-c5ccc(Br)cc5F)ccc4=O)cc3F)ccnc2cc1OCCCN1CCCCC1 [Compound 35, 1-(4-Bromo-2-fluorophenyl)-N-(3-fluoro-4-((6-methoxy-7-(3-(piperidin-1-yl)propoxy)quinolin-4-yl)oxy)phenyl)-4-oxo-1,4-dihydropyridazine-3-carboxamide] | 1360 ± 190 nM | 3100 ± 490 nM | 1190 ± 80 nM | 105.9 to 107.4 °C | 8 nM
COc1cc2c(Oc3ccc(NC(=O)c4nn(-c5ccc(Cl)cc5)ccc4=O)cc3F)ccnc2cc1OCCCN1CCCCC1 [Compound 31, 1-(4-Chlorophenyl)-N-(3-fluoro-4-((6-methoxy-7-(3-(piperidin-1-yl)propoxy)quinolin-4-yl)oxy)phenyl)-4-oxo-1,4-dihydropyridazine-3-carboxamide] | 570 ± 20 nM | 690 ± 30 nM | 1160 ± 60 nM | 158.2 to 159.6 °C | 78 nM
COc1cc2c(Oc3ccc(NC(=O)c4nn(-c5ccc(F)c(Cl)c5)ccc4=O)cc3F)ccnc2cc1OCCCN1CCN(C)CC1 [Compound 50, 1-(3-Chloro-4-fluorophenyl)-N-(3-fluoro-4-((6-methoxy-7-(3-(4-methylpiperazin-1-yl)propoxy)quinolin-4-yl)oxy)phenyl)-4-oxo-1,4-dihydropyridazine-3-carboxamide] | 20 ± 10 nM | 2460 ± 390 nM | 20 ± 10 nM |  | 2 nM
COc1cc2c(Oc3ccc(NC(=O)c4nn(-c5ccc(Br)cc5F)ccc4=O)cc3F)ccnc2cc1OCCCN1CCOCC1 [Compound 27, 1-(4-Bromo-2-fluorophenyl)-N-(3-fluoro-4-((6-methoxy-7-(3-morpholinopropoxy)quinolin-4-yl)oxy)phenyl)-4-oxo-1,4-dihydropyridazine-3-carboxamide] | > 50000 nM | > 50000 nM | > 50000 nM | 113.7 to 115.1 °C | 478 nM
COc1cc2c(Oc3ccc(NC(=O)c4nn(-c5ccc(Br)cc5)ccc4=O)cc3F)ccnc2cc1OCCCN1CCC(C)CC1 [Compound 40, 1-(4-Bromophenyl)-N-(3-fluoro-4-((6-methoxy-7-(3-(4-methylpiperidin-1-yl)propoxy)quinolin-4-yl)oxy)phenyl)-4-oxo-1,4-dihydropyridazine-3-carboxamide] | 13500 ± 1130 nM | 8840 ± 950 nM | 9740 ± 990 nM | 220.7 to 221.4 °C | 345 nM
COc1cc2c(Oc3ccc(NC(=O)c4nn(-c5ccc(Br)cc5)ccc4=O)cc3F)ccnc2cc1OCCCN1CCOCC1 [Compound 24, 1-(4-Bromophenyl)-N-(3-fluoro-4-((6-methoxy-7-(3-morpholinopropoxy)quinolin-4-yl)oxy)phenyl)-4-oxo-1,4-dihydropyridazine-3-carboxamide] | > 50000 nM | > 50000 nM | > 50000 nM | 125.7 to 127.1 °C | > 500 nM
COc1cc2c(Oc3ccc(NC(=O)c4nn(-c5ccc(Cl)c(C(F)(F)F)c5)ccc4=O)cc3F)ccnc2cc1OCCCN1CCC(C)CC1 [Compound 44, 1-(4-Chloro-3-(trifluoromethyl)phenyl)-N-(3-fluoro-4-((6-methoxy-7-(3-(4-methylpiperidin-1-yl)propoxy)quinolin-4-yl)oxy)phenyl)-4-oxo-1,4-dihydropyridazine-3-carboxamide] | 150 ± 30 nM | 650 ± 50 nM | 5960 ± 70 nM | 137.7 to 138.6 °C | 19 nM
COc1cc2c(Oc3ccc(NC(=O)c4nn(-c5ccc(Cl)cc5)ccc4=O)cc3F)ccnc2cc1OCCCN1CCC(C)CC1 [Compound 39, 1-(4-Chlorophenyl)-N-(3-fluoro-4-((6-methoxy-7-(3-(4-methylpiperidin-1-yl)propoxy)quinolin-4-yl)oxy)phenyl)-4-oxo-1,4-dihydropyridazine-3-carboxamide] | 12400 ± 1090 nM | 7810 ± 890 nM | 14100 ± 1150 nM | 220.6 to 222.1 °C | 169 nM
COc1cc2c(Oc3ccc(NC(=O)c4nn(-c5ccc(F)cc5)ccc4=O)cc3F)ccnc2cc1OCCCN1CCN(C)CC1 [Compound 46, N-(3-Fluoro-4-((6-methoxy-7-(3-(4-methylpiperazin-1-yl)propoxy)quinolin-4-yl)oxy)phenyl)-1-(4-fluorophenyl)-4-oxo-1,4-dihydropyridazine-3-carboxamide] | 1640 ± 220 nM | 7510 ± 870 nM | 1660 ± 220 nM |  | 39 nM
COc1cc2c(Oc3ccc(NC(=O)c4nn(-c5ccc(Cl)cc5)ccc4=O)cc3F)ccnc2cc1OCCCN1CCN(C)CC1 [Compound 47, 1-(4-Chlorophenyl)-N-(3-fluoro-4-((6-methoxy-7-(3-(4-methylpiperazin-1-yl)propoxy)quinolin-4-yl)oxy)phenyl)-4-oxo-1,4-dihydropyridazine-3-carboxamide] | 20000 ± 1300 nM | 14200 ± 1150 nM | 21100 ± 1320 nM | 163.5 to 165.3 °C | 145 nM
COc1cc2c(Oc3ccc(NC(=O)c4nn(-c5ccc(Br)cc5)ccc4=O)cc3F)ccnc2cc1OCCCN1CCN(C)CC1 [Compound 48, 1-(4-Bromophenyl)-N-(3-fluoro-4-((6-methoxy-7-(3-(4-methylpiperazin-1-yl)propoxy)quinolin-4-yl)oxy)phenyl)-4-oxo-1,4-dihydropyridazine-3-carboxamide] | > 50000 nM | > 50000 nM | > 50000 nM | 159.7 to 161.2 °C | > 500 nM
COc1ccc(-n2ccc(=O)c(C(=O)Nc3ccc(Oc4ccnc5cc(OCCCN6CCCCC6)c(OC)cc45)c(F)c3)n2)cc1 [Compound 33, N-(3-Fluoro-4-((6-methoxy-7-(3-(piperidin-1-yl)propoxy)quinolin-4-yl)oxy)phenyl)-1-(4-methoxyphenyl)-4-oxo-1,4-dihydropyridazine-3-carboxamide] | 2780 ± 440 nM | 630 ± 80 nM | 2350 ± 370 nM | 105.4 to 106.5 °C | 56 nM
COc1cc2c(Oc3ccc(NC(=O)c4nn(-c5ccc(Br)cc5F)ccc4=O)cc3F)ccnc2cc1OCCCN1CCN(C)CC1 [Compound 51, 1-(4-Bromo-2-fluorophenyl)-N-(3-fluoro-4-((6-methoxy-7-(3-(4-methylpiperazin-1-yl)propoxy)quinolin-4-yl)oxy)phenyl)-4-oxo-1,4-dihydropyridazine-3-carboxamide] | 5630 ± 750 nM | 6390 ± 810 nM | 5430 ± 740 nM |  | 123 nM
COc1ccc(-n2ccc(=O)c(C(=O)Nc3ccc(Oc4ccnc5cc(OCCCN6CCN(C)CC6)c(OC)cc45)c(F)c3)n2)cc1 [Compound 49, 1-(4-((l1-Oxidanyl)-l5-methyl)phenyl)-N-(3-fluoro-4-((6-methoxy-7-(3-(4-methylpiperazin-1-yl)propoxy)quinolin-4-yl)oxy)phenyl)-4-oxo-1,4-dihydropyridazine-3-carboxamide] | 9120 ± 960 nM | 3680 ± 570 nM | 8120 ± 910 nM | 167.5 to 169.1 °C | 78 nM
COc1cc2c(Oc3ccc(NC(=O)c4nn(-c5ccc(F)cc5)ccc4=O)cc3F)ccnc2cc1OCCCN1CCOCC1 [Compound 22] | 250 ± 10 nM | 2230 ± 350 nM | 210 ± 20 nM | 152.3 to 153.5 °C | 47 nM
COc1cc2c(Oc3ccc(NC(=O)c4nn(-c5ccc(F)cc5)ccc4=O)cc3F)ccnc2cc1OCCCN1CCC(C)CC1 [Compound 38, N-(3-Fluoro-4-((6-methoxy-7-(3-(4-methylpiperidin-1-yl)propoxy)quinolin-4-yl)oxy)phenyl)-1-(4-fluorophenyl)-4-oxo-1,4-dihydropyridazine-3-carboxamide] | 28900 ± 1460 nM | 47200 ± 1670 nM | 22500 ± 1350 nM | 210.1 to 211.4 °C | > 500 nM
